The source made the active and inactive calls.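 How the source made its calls: active means IC50 for loss of cell viability, measured as ATP drop, at or below 10 µM; inactive means the rest.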
test system: Jurkat viability, CellTiter-Glo ATP luminescence; test: Jurkat T cell cytotoxicity, late-stage follow-up, cytotoxicity control for TAAR1 agonist/antagonist project, luminescence, powder samples (AID 1053179)

Compound | IC50
O=C(CCN1CCC(c2ccccc2)C1)c1ccccc1 (configuration not stated) | 3.95 µM
N#Cc1c(C(F)(F)F)cc(-c2ccc(Cl)cc2)nc1SCC(=O)N1CCCCCC1 | > 83.3 µM (inactive)
N#Cc1c(C(F)(F)F)cc(-c2ccc(Cl)cc2)nc1SCC(=O)Nc1ncccn1 | 53 µM (inactive)
Cc1ccc(C(=O)CCN2CCC(c3ccccc3)C2)cc1 (configuration not stated) | 5.06 µM
CC(CN1CCCC1Cc1ccccc1)C(=O)c1ccc2c(c1)OCCO2 (configuration not stated) | 3.66 µM
N#Cc1c(C(F)(F)F)cc(-c2ccc(Cl)cc2)nc1SCC(=O)N1CCCC1 | > 83.3 µM (inactive)
COc1cc(C(=O)CCN2CCC(c3ccccc3)C2)cc(OC)c1OC (configuration not stated) | 7.06 µM

Source: PubChem BioAssay AID1053179 (The Scripps Research Institute Molecular Screening Center, 2014)
